Measurements: patent USRE50799E1, “JAK1 selective inhibitors and uses thereof” (Hangzhou HighlightII Pharmaceutical Co., Ltd, priority 2016, dated 2026)

How the values were obtained:
[1] = tested on: IL-6 induced STAT3 phosphorylation; assay: Human whole blood p-STAT3 assay, IL-6 stimulation; format: cell-based; conditions: for IC50: 0.25 h, IL-6 100 ng/ml 15 min, pSTAT3 ELISA, read-out: IL-6 (range of IC50, induced STAT3 phosphorylation); for Inhibition of IL-6 induced STAT3 phosphorylation, statement in words: versus TPO induced
Protocol: (§1) Example B2: Human Whole Blood p-STAT3 Assay
(§2) 1. Whole blood samples from human donors
2. IL-6 (R&D systems; Cat #206-IL)
(§3) 5. ELISA kit for pSTAT3 (Invitrogen; Cat # KH00481)
(§4) 1. 150 μl heparinized blood sample/tube.
(§5) 2. Compounds at various concentrations is added to the blood, incubate for 10 min at RT (10 doses, 2 replicates for each compound).
(§6) 3. Add IL-6 (final concentration: 100 ng/ml) or TPO (final conc: 50 ng/ml) to the blood for 15 min.
(§7) 4. After the stimulation, add 0.6 mL RBC lysis buffer (Qiagen 79217) and mix and rock for 1-2 minutes at room temperature before centrifugation to remove lyzed RBCs. This step may be repeated once if RBCs are not lyzed completely. Harvest the WBCs.
(§8) 5. Add 200 μl cell lysis buffer, ice 30 min.
(§9) 7. Transfer the supernatant to a new tube as cell lysate.
(§10) 8. Run ELISA procedure according to the product instruction of ELIA kit.

[2] = tested on: TPO induced STAT3 phosphorylation; assay: Human whole blood p-STAT3 assay, TPO stimulation; format: cell-based; conditions: for IC50: 0.25 h, TPO 50 ng/ml 15 min, pSTAT3 ELISA, read-out: TPO (range of IC50, induced STAT3 phosphorylation)
Protocol: as §1, §2
3. Thrombopoietin (TPO; R&D systems; Cat #288-TP)
as §3, §4, §5, §6, §7, §8, §9, §10

[3] = biological target: T1, Jak2 (Homo sapiens, UniProt O60674); assay: Jak2 biochemical assay (33P-ATP filter-binding, Reaction Biology Corp); conditions: biochemical kinase assay, read-out: Jak2 (range of IC50)
T1 construct: Reaction Biology Corp (performed the assay)
Protocol: (§11) Example B1: Jak1, 2, 3, Tyk2 Biochemical Assays
(§12) Assays were performed by Reaction Biology Corp, Malvern, Pa. The procedure is briefly described below.
(§13) Base Reaction buffer; 20 mM Hepes (pH 7.5), 10 mM MgCl2, 1 mM EGTA, 0.02% Brij35, 0.02 mg/ml BSA, 0.1 mM Na3VO4, 2 mM DTT, 1% DMSO. Required cofactors are added individually to each kinase reaction
(§14) 1. Prepare indicated substrate in freshly prepared Base Reaction Buffer
(§15) 2. Deliver any required cofactors to the substrate solution above
(§16) 3. Deliver indicated kinase into the substrate solution and gently mix
(§17) 4. Deliver compounds in DMSO into the kinase reaction mixture by Acoustic technology (Echo550; nanoliter range), incubate for 20 minutes at room temperature
(§18) 5. Deliver ^33P-ATP (specific activity 10 μCi/μl) into the reaction mixture to initiate the reaction.
(§19) 6. Incubate kinase reaction for 2 hours at room temperature
(§20) 7. Reactions are spotted onto P81 ion exchange paper
(§21) 8. Detect kinase activity by filter-binding method.

[4] = biological target: T2, Jak1 (Homo sapiens, UniProt P23458); assay: Jak1 biochemical assay (33P-ATP filter-binding, Reaction Biology Corp); conditions: for IC50: biochemical kinase assay, 33P-ATP, filter-binding, read-out: Jak1 (range of IC50); for Jak1 inhibition, statement in words: biochemical assays, Jak1 versus Jak2
T2 construct: Reaction Biology Corp (performed the assay)
Protocol: as §11, §12, §13, §14, §15, §16, §17, §18, §19, §20, §21

T2 sequence (P23458 whole entry): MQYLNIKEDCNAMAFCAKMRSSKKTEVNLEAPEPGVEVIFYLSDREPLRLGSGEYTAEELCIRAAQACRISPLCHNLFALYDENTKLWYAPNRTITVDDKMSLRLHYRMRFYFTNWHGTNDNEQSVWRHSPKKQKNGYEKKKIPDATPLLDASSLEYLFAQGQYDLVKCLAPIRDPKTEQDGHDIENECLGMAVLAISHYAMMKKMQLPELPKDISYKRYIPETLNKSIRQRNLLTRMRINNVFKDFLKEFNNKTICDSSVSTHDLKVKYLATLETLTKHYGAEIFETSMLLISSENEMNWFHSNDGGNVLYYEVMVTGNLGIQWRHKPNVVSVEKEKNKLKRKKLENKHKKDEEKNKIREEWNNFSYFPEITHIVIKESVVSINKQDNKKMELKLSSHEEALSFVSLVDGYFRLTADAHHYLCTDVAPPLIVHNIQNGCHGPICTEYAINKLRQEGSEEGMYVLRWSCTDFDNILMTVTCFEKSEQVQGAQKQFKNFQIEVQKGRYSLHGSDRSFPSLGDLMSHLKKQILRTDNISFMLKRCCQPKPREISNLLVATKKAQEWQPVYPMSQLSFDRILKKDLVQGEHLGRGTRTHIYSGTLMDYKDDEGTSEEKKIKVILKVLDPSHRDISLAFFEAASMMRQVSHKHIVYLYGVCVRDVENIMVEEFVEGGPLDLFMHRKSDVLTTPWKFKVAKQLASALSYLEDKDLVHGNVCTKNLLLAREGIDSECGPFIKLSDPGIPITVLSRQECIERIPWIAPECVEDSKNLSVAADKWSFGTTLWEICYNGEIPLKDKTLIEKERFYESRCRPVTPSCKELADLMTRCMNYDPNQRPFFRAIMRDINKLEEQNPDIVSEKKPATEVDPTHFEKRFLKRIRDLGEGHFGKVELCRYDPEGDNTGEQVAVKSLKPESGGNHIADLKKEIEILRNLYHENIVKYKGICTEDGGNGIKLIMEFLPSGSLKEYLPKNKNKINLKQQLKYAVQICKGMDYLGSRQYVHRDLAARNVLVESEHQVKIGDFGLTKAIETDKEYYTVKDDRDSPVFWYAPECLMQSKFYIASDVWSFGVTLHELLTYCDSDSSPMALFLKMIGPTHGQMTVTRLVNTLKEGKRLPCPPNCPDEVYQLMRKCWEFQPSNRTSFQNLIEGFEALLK
T1 sequence (O60674 whole entry): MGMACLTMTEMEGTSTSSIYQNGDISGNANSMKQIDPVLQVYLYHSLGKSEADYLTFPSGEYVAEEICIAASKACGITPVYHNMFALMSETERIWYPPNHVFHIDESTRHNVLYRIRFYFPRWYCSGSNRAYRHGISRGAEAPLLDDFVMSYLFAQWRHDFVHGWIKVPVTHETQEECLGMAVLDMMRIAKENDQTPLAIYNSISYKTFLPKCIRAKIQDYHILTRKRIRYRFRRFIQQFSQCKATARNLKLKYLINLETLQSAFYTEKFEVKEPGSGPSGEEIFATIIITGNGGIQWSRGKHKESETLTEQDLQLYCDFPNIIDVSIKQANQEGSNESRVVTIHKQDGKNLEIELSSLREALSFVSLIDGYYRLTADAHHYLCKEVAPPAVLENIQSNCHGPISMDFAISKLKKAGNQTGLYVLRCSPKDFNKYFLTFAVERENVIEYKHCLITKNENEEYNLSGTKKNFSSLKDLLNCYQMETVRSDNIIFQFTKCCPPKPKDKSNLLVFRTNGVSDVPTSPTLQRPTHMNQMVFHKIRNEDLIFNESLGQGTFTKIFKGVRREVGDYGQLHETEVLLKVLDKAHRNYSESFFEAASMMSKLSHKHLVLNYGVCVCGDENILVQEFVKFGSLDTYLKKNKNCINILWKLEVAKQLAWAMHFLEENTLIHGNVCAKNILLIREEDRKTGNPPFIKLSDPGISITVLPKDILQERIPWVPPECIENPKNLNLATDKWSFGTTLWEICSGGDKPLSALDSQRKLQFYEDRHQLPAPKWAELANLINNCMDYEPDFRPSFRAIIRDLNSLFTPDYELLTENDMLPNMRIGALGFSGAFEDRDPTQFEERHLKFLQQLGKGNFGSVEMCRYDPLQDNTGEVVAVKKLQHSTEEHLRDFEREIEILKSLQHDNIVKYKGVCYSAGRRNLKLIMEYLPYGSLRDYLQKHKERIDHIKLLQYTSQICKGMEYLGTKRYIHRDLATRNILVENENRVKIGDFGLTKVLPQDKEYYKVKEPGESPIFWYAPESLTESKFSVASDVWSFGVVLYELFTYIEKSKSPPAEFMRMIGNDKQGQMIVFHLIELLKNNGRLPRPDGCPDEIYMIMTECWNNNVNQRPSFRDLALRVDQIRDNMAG

Row | Compound | IC50 [1] [nM] | Activity in the TPO induced STAT3 phosphorylation assay, statement in words [2] | IC50 [2] [nM] | IC50 [3] [nM] | IC50 [4] [nM] | Inhibition of IL-6 induced STAT3 phosphorylation, statement in words [1] | Jak1 inhibition, statement in words [4]
1 | Cc1nc2cnc3ccoc3c2n1[C@H]1CC[C@H](CC#N)OC1 [Example 11, 2-[(2R,5S)-5-[2-Methylfuro [3,2-b]imidazo [4,5-d]pyridin-1-yl]tetrahydropyran-2-yl] acetonitrile] | < 5000 | some activity | 20000 to 100000 | 10 to 100 | < 10 |  | 
2 | C[C@@H](O)c1nc2cnc3ccoc3c2n1[C@H]1CC[C@H](CC#N)OC1 [Example 4, 2-[(2R,5S)-5-[2-[(R)-1-Hydroxyethyl]furo[3,2-b]imidazo[4,5-d]pyridin-1-yl]tetrahydropyran-2-yl] acetonitrile] | < 5000 |  | > 100000 | 100 to 1000 | < 10 | selective inhibition of IL-6 induced STAT3 phosphorylation, but not TPO induced STAT3 phosphorylation | potent and selective Jak1 inhibitors
3 | C[C@@H](O)c1nc2cnc3ccoc3c2n1[C@H]1CC[C@H](CC#N)CC1 [Example 3, 2-[trans-4-[2-[(R)-1-Hydroxyethyl]furo[3,2-b]imidazo[4,5-d]pyridin-1-yl]cyclohexyl] acetonitrile] | < 5000 |  | > 100000 | 100 to 1000 | < 10 | selective inhibition of IL-6 induced STAT3 phosphorylation, but not TPO induced STAT3 phosphorylation | potent and selective Jak1 inhibitors
4 | N#CC[C@H]1CC[C@H](n2c(CO)nc3cnc4ccoc4c32)CO1 [Example 7, 2-[(2R,5S)-5-[2-(Hydroxymethyl)furo[3,2-b]imidazo[4,5-d]pyridin-1-yl]tetrahydropyran-2-yl] acetonitrile] | < 5000 |  | > 100000 | 100 to 1000 | < 10 | selective inhibition of IL-6 induced STAT3 phosphorylation, but not TPO induced STAT3 phosphorylation | potent and selective Jak1 inhibitors
5 | C[C@@H](O)c1nc2cnc3ccoc3c2n1C1CCN(C(=O)NCC(F)(F)F)CC1 [Example 6, (R)-4-[2-(1-Hydroxyethyl)-1H-furo[3,2-b]imidazo[4,5-d]pyridin-1-yl]-N-(2,2,2-trifluoroethyl)piperidine-1-carboxamide] |  |  |  | > 1000 | > 1000 |  | 
6 | C[C@@H](O)c1nc2cnc3ccoc3c2n1[C@H]1CC[C@H](C#N)CC1 [Example 1, trans-4-[2-[(R)-1-Hydroxyethyl]-1H-furo [3,2-b]imidazo [4,5-d]pyridin-1-yl] cyclohexanecarbonitrile] |  |  |  |  | 100 to 1000 |  | 
7 | N#CC[C@@H]1CC[C@H](n2c(CO)nc3cnc4ccoc4c32)CO1 [Example 8, 2-[(2S,5S)-5-[2-(Hydroxymethyl)furo[3,2-b]imidazo[4,5-d]pyridin-1-yl]tetrahydropyran-2-yl] acetonitrile] |  |  |  | > 1000 | 100 to 1000 |  | 
8 | CCc1nc2cnc3ccoc3c2n1[C@H]1CC[C@H](CC#N)OC1 [Example 9, 2-[(2R,5S)-5-[2-Ethylfuro[3,2-b]imidazo[4,5-d]pyridin-1-yl]tetrahydropyran-2-yl] acetonitrile] |  |  |  | 100 to 1000 | < 10 |  | potent and selective Jak1 inhibitors
9 | N#C[C@H]1CC[C@H](n2c(CO)nc3cnc4ccoc4c32)CC1 [Example 2, trans-4-[2-(Hydroxymethyl)furo[3,2-b]imidazo[4,5-d]pyridin-1-yl]cyclohexanecarbonitrile] |  |  |  |  | 100 to 1000 |  | 
10 | C[C@@H](O)c1nc2cnc3ccoc3c2n1C1CCN(C(=O)NCC(F)(F)F)C1 (stereo partly drawn) [Example 5, 3-[2-[(R)-1-Hydroxyethyl]-1H-furo[3,2-b]imidazo[4,5-d]pyridin-1-yl]-N-(2,2,2-trifluoroethyl)pyrrolidine-1-carboxamide] |  |  |  | > 1000 | > 1000 |  | 
